According to patent US6683211B1, “Phenyl-propargylether derivatives” (priority 2000, dated 2004):

Tests used:
Plasmopara viticola [1] = assay: D-1a) residual-protective action against Plasmopara viticola on vines; assay type: in vivo; settings: Plasmopara viticola, 144 h; 200 ppm; test D-1a) residual-protective; vine seedlings; evaluated after 6 days; read-out: inhibit fungal infestations
Procedure: (§1) D-1: Action Against Plasmopara viticola on Vines
(§2) a) Residual-protective Action
Vine seedlings are sprayed at the 4- to 5-leaf stage with a spray mixture (0.02% active ingredient) prepared from a wettable powder formulation of the test compound. After 24 hours, the treated plants are infected with a sporangia suspension of the fungus. Fungus infestation is evaluated after incubation for 6 days at 95-100% relative humidity and +20° C.

Plasmopara viticola [2] = assay: D-1b) residual-curative action against Plasmopara viticola on vines; assay type: in vivo; settings: Plasmopara viticola, 144 h; 200 ppm; test D-1b) residual-curative; vine seedlings; evaluated 6 days after infection; read-out: inhibit fungal infestations
Procedure: as §1
b) Residual-curative Action
Vine seedlings are infected at the 4- to 5-leaf stage with a sporangia suspension of the fungus. After incubation for 24 hours in a humidity chamber at 95-100% relative humidity and +20° C., the infected plants are dried and sprayed with a spray mixture (0.02% active ingredient) prepared from a wettable powder formulation of the test compound. After the spray coating has dried, the treated plants are placed in the humidity chamber again.
Fungus infestation is evaluated 6 days after infection.

Phytophthora [3] = assay: D-2a) residual-protective action against Phytophthora on tomato plants; assay type: in vivo; settings: Phytophthora, 120 h; 200 ppm; test D-2a) residual-protective, evaluated after 5 days, read-out: inhibit fungal infestations
Procedure: (§3) D-2: Action Against Phytophthora on Tomato Plants
as §2
After a cultivation period of 3 weeks, tomato plants are sprayed with a spray mixture (0.02% active ingredient) prepared from a wettable powder formulation of the test compound. After 48 hours, the treated plants are infected with a sporangia suspension of the fungus. Fungus infestation is evaluated after incubation of the infected plants for 5 days at 90-100% relative humidity and +20° C.

Phytophthora [4] = assay: D-2b) systemic action against Phytophthora on tomato plants; assay type: in vivo; settings: Phytophthora, 96 h; 200 ppm; test D-2b) systemic (soil watering), evaluated after 4 days, read-out: inhibit fungal infestations
Procedure: as §3
After a cultivation period of 3 weeks, tomato plants are watered with a spray mixture (0.02% active ingredient based on the volume of the soil) prepared from a wettable powder formulation of the test compound. […] After 96 hours, the treated plants are infected with a sporangia suspension of the fungus. Fungus infestation is evaluated after incubation of the infected plants for 4 days at 90-100% relative humidity and +20° C. […] Compounds E1.003, E1.004, E1.009, E1.011, E1.012, E1.014, E1.018, E1.019, E1.020, E1.021, E1.022, E1.023, E1.025, E1.031, E1.032, E1.033, E1.038, E1.040, E1.044, E1.045, E1.049, E1.050, E1.053, E1.055, E1.057, E1.064, E1.085, E1.089, E1.090, E1.091, E1.102, E1.08, E1.110, E1.112, E1.121, E1.125, E1.129, E1.139 and E1.141 at 200 ppm inhibit fungal infestations in both tests D-2a) and D-2b) by 80-100%.

Phytophthora [5] = assay: D-3a) residual-protective action against Phytophthora on potato plants; assay type: in vivo; settings: Phytophthora, 96 h; 200 ppm; test D-3a) residual-protective; potato plants (Bintje); evaluated after 4 days; read-out: inhibit fungal infestations
Procedure: (§4) D-3: Action Against Phytophthora on Potato Plants
as §2
2-3 week old potato plants (Bintje variety) are sprayed with a spray mixture (0.02% active ingredient) prepared from a wettable powder formulation of the test compound. After 48 hours, the treated plants are infected with a sporangia suspension of the fungus. Fungus infestation is evaluated after incubation of the infected plants for 4 days at 90-100% relative humidity and +20° C.

Phytophthora [6] = assay: D-3b) systemic action against Phytophthora on potato plants; assay type: in vivo; settings: Phytophthora, 96 h; 200 ppm; test D-3b) systemic (soil watering); potato plants (Bintje); evaluated after 4 days; read-out: inhibit fungal infestations
Procedure: as §4
2-3 week old potato plants (Bintje variety) are watered with a spray mixture (0.02% active ingredient based on the volume of the soil) prepared from a wettable powder formulation of the test compound. […] After 48 hours, the treated plants are infected with a sporangia suspension of the fungus. Fungus infestation is evaluated after incubation of the infected plants for 4 days at 90-100% relative humidity and +20° C. Fungal infestation is effectively controlled with compounds of Tables 1 to 35. Compounds E1.003, E1.004, E1.009, E1.011, E1.012, E1.019, E1.020, E1.021, E1.022, E1.025, E1.031, E1.032, E1.033, E1.038, E1.045, E1.049, E1.050, E1.053, E1.085, E1.089, E1.090, E1.091, E1.102, E1.110, E1.112, E1.121, E1.125, E1.129 at 200 ppm inhibit fungal infestations in both tests D-3a) and D-3b) by 80-100%.

| Structure (SMILES) | melting point | inhibition at 200 ppm (Plasmopara viticola [1]) | inhibition at 200 ppm (Plasmopara viticola [2]) | inhibition at 200 ppm (Phytophthora [3]) | inhibition at 200 ppm (Phytophthora [4]) | inhibition at 200 ppm (Phytophthora [5]) | inhibition at 200 ppm (Phytophthora [6]) |
| --- | --- | --- | --- | --- | --- | --- | --- |
| C#CCOc1ccc(CCNC(=O)C(Cl)c2ccc(Br)cc2)cc1OC (stereo not drawn) | 100 to 102 °C |  |  |  |  |  |  |
| C#CCOc1ccc(CCNC(=O)C(OCC#C)c2ccc(Br)cc2)cc1OC (stereo not drawn) [Compound E1.022, 2-(4-bromo-phenyl)-N-[2-(3-methoxy-4-prop-2-ynyloxy-phenyl)-ethyl]-2-prop-2-ynyloxy-acetamide] | 92 to 94 °C | 80 to 100% | 80 to 100% | 80 to 100% | 80 to 100% | 80 to 100% | 80 to 100% |
| C#CCOc1ccc(CCNC(=O)C(OCC#C)c2ccc(C)cc2)cc1OC (stereo not drawn) [Compound E1.045, 2-(4-tolyl)-N-[2-(3-methoxy-4-prop-2-ynyloxy-phenyl)-ethyl]-2-prop-2-ynyloxy-acetamide] | 81 to 82 °C | 80 to 100% | 80 to 100% | 80 to 100% | 80 to 100% | 80 to 100% | 80 to 100% |
| C#CCOc1ccc(CCNC(=O)C(OCC#C)c2ccc(F)c(Cl)c2)cc1OC (stereo not drawn) [Compound E1.090, 2-(3-chloro-4-fluoro-phenyl)-N-[2-(3-methoxy-4-prop-2-ynyloxy-phenyl)-ethyl]-2-prop-2-ynyloxy-acetamide] |  | 80 to 100% | 80 to 100% | 80 to 100% | 80 to 100% | 80 to 100% | 80 to 100% |
| C#CCOc1ccc(CCNC(=O)C(OCC#C)c2ccc(Cl)c(F)c2)cc1OC (stereo not drawn) [Compound E1.091, 2-(3-fluoro-4-chloro-phenyl)-N-[2-(3-methoxy-4-prop-2-ynyloxy-phenyl)-ethyl]-2-prop-2-ynyloxy-acetamide] |  | 80 to 100% | 80 to 100% | 80 to 100% | 80 to 100% | 80 to 100% | 80 to 100% |
| C#CCOc1ccc(CCNC(=O)C(OCC#C)c2ccc(Cl)c(Cl)c2)cc1OC (stereo not drawn) [Compound E1.102, 2-(3,4-dichloro-phenyl)-N-[2-(3-methoxy-4-prop-2-ynyloxy-phenyl)-ethyl]-2-prop-2-ynyloxy-acetamide] |  | 80 to 100% | 80 to 100% | 80 to 100% | 80 to 100% | 80 to 100% | 80 to 100% |
